# What was measured:
# Type in all cases: biochemical
# [1] = test system: XhoI, PstI, HindIII, and EcoRI; test: DNA cleavage reactions by various restriction enzymes on bead and plate surfaces; conditions: 0.6 M trehalose vs none, all enzymes
# Experimental: Differences in activity based on the type of enzyme in reactions under conditions where trehalose was present and absent and for various reactions surface shapes were examined. XhoI, PstI, HindIII, and EcoRI were employed as restriction enzymes to conduct reactions cleaving the same site on a DNA fragment with different enzymes (Scheme 8).
# Cleavage reactions by various restriction enzymes were conducted on biotin-labeled DNA fragments I, II, and III (Seq. ID Nos. 4 to 6, Scheme 4) on bead surfaces. […] Paramagnetic streptavidin beads were washed with accessory 1× binding buffer, recovered with a magnetic stand to remove the supernatant, and suspended in the same buffer. […] The precipitate of DNA fragments obtained was dissolved in 1× TE (pH 7.5) and analyzed with Bioanalyzer DNA 1000 assay (Agilent Technologies).
# Biotin-labeled DNA fragments II and III (Seq. ID Nos. 5 and 6, Scheme 4) were subjected to cleavage reactions by different restriction enzymes on horizontal streptavidin-coated plate surfaces. […] The precipitate of DNA fragments obtained was dissolved in 1× TE (pH 7.5) and analyzed with Bioanalyzer DNA 1000 assay (Agilent Technologies).
# [2] = test system: restriction enzyme PstI; test: PstI cleavage reaction on a spherical bead surface (DNA fragment III); conditions: DNA adsorbed to beads, 0.6 M trehalose vs none
# Experimental: Biotin-labeled DNA fragment III (Seq. ID No. 6, Scheme 4) was cleaved at the restriction enzyme PstI site on the surface of streptavidin beads and the 104 by DNA fragment released was examined. DNA fragment III (500 ng) and 2× binding buffer were admixed in equal volume quantities, a solution of beads suspended in 1× binding buffer was added, and the mixture was gently stirred with top to bottom inversion and rotation for 15 minutes at room temperature to induce adsorption. The beads onto which the sample had adsorbed were recovered with a magnetic stand, washed three times with 1× binding buffer, and washed once with 1× PstI buffer. Two types of reaction solution (1× PstI buffer, 1× BSA restriction enzyme 40 units) were prepared: a trehalose (+) system to which D(+)-trehalose was added to a final concentration of 0.6 M, and a trehalose (−) system to which no trehalose was added. Each of the reaction solutions was admixed to beads that had been washed and the mixtures were reacted for three hours at 37° C. The beads were recovered with the magnetic stand and cleaved with restriction enzyme. […] The precipitate of DNA fragments obtained was dissolved in 1× TE (pH 7.5) and analyzed with Bioanalyzer DNA 1000 assay (Agilent Technologies).
# [3] = test system: E. coli DNA ligase, E. coli DNA polymerase I, E. coli RNaseH; test: Double-stranded cDNA synthesis (Gubler-Hoffman method) on cDNA/RNA hybrid adsorbed to streptavidin beads; conditions: 0.6 M trehalose, 3 hours at 16° C.
# Experimental: RNA was reverse transcribed with Unique oligo-dT having various restriction enzyme sites. The cDNA/RNA hybrids obtained were used while still adsorbed to the beads to conduct a double-strand synthesis reaction by the Gubler-Hoffman method as set forth below.
# A 15 ug quantity of 5′ end biotin-labeled primer (Seq. ID No. 3) for reverse transcription was employed for 12 ug of total RNA (mouse embryo, 17.5, female). Reverse transcription reaction solution (1× GC buffer (Takara), 0.3 mM dNTP mix, saturated sorbitol/trehalose solution 30 uL, M-MLV 3,000 units) was added α[32P]dGTP was added, and the mixture was reacted for 30 minutes at 42° C., 10 minutes at 50° C., and 10 minutes at 56° C. Following reaction with proteinase K, the mixture was precipitated from CTAB/urea and redissolved in 7 M Gu-HCl. EtOH precipitation was then conducted. […]
# Streptavidin beads on which was adsorbed cDNA/RNA hybrid were washed once with double-stranded synthesis-use reaction buffer ([…], Invitrogen). […] The mixture was washed three times with 1× binding buffer and measured with a liquid scintillation counter. The synthesis rate of double-stranded cDNA and the yield were calculated (Scheme 1).
structure (smiles),measurement,setting,value
"OC[C@H]1O[C@H](O[C@H]2O[C@H](CO)[C@@H](O)[C@H](O)[C@H]2O)[C@H](O)[C@@H](O)[C@@H]1O [trehalose, D(+)-trehalose]",enzymatic activity in cleavage reactions,[1],increased activity
same,yield of released DNA fragment,[2],higher yield
same,"double-stranded cDNA synthesis rate, increase over trehalose (−) conditions",[3],1.25 fold
